Data taken from patent publication US9493435B2, “IRE-1α inhibitors” (MannKing Corporation, priority 2009, dated 2016).

Tested on: IRE-1α-mediated XBP-1 splicing in human myeloma MM.1s cells
Assay: Cellular XBP-1 splicing assay in myeloma cells (RT-PCR)
Format: cell-based
Conditions: Homo sapiens, MM1.S; average EC50, endogenous XBP-1 splicing in myeloma cells, DTT stress
Method: After an additional 45 minutes (2 hours total) with compound and DTT, the cells are harvested with TRIZOL® (a mono-phasic solution of phenol and guanidine isothiocyanate), and total RNA is prepared as directed by the manufacturer (Invitrogen). Human XBP-1 is amplified by RT-PCR with the following primers, which flank the 26 base unconventional intron excised by IRE-1α:
RT-PCR of unstressed (U) cells then generates the upper band. When cells are stressed (S) with the endoplasmic reticulum (ER) stressing agent DTT, IRE-1α is activated due to accumulating unfolded protein and the resulting RT-PCR product is 26 base pairs shorter.
Compounds which pass specificity assays are assayed for cellular EC50 using endogenous XBP-1 splicing in myeloma cells. XBP-1 is regulated through the excision of a 26 nucleotide intron from the XBP-1 mRNA by the highly specific endoribonuclease activity of IRE-1α. […] This splicing event is used to measure IRE-1α activity on XBP-1 mRNA in cells and tissues.
Briefly, compounds are incubated in the presence or absence of an ER stress agent (e.g., DTT), and the ratio of XBP-1u (unspliced) to XBP-1s (spliced) is quantified by RT-PCR.

SMILES	EC50
O=Cc1c(O)ccc2cc(N3CCN(Cc4cccnc4)CC3)ccc12 [Compound 100]	> 10 µM
CN1CCN(C(=O)C2CCN(c3ccc4c(C=O)c(O)ccc4c3)C2)CC1 (stereo not drawn) [Compound 112]	< 10 µM
CS(=O)(=O)N1CCN(c2ccc3c(C=O)c(O)ccc3c2)CC1 [Compound 92, 2-Hydroxy-6-(4-methanesulfonyl-piperazin-1-yl)-naphthalene-1-carbaldehyde]	> 10 µM
CN1CCCC(NC(=O)c2ccc(-c3ccc4c(C=O)c(O)ccc4c3)s2)C1 (stereo not drawn) [Compound 78]	< 10 µM
O=Cc1c(O)ccc2cc(N3CCC(C(=O)N4CCCCC4)C3)ccc12 (stereo not drawn) [Compound 129]	> 10 µM
CN1CCN(C(=O)c2cc(-c3ccc4c(C=O)c(O)ccc4c3)ccn2)CC1 [Compound 66]	< 10 µM
CN1CCN(C2CCN(c3ccc4c(C=O)c(O)ccc4c3)C2)CC1 (stereo not drawn) [Compound 118]	< 10 µM
O=Cc1c(O)ccc2cc(-c3ccc(C(=O)NCC4CCCCN4)s3)ccc12 (stereo not drawn) [Compound 41]	< 10 µM
O=Cc1c(O)ccc2cc(N3CCC(N4CCOCC4)CC3)ccc12 [Compound 82]	< 10 µM
CN1CCN(c2ncc(-c3ccc4c(C=O)c(O)ccc4c3)s2)CC1 [Compound 121]	< 10 µM
O=Cc1c(O)ccc2cc(-c3ccc(C(=O)NCCN4CCOCC4)s3)ccc12 [Compound 36]	< 10 µM
O=Cc1c(O)ccc2cc(-c3ccc(C(=O)NCCN4CCOCC4)cc3)ccc12 [Compound 139]	< 10 µM
CNC(=O)C1CCN(c2ccc3ccc(O)c(C=O)c3c2)C1 (stereo not drawn) [Compound 131]	> 10 µM
O=Cc1c(O)ccc2cc(N3CCC(N4CCOCC4)C3)ccc12 (stereo not drawn) [Compound 107]	> 10 µM
CNC(=O)c1cccc(-c2ccc3c(C=O)c(O)ccc3c2)c1 [Compound 8]	< 10 µM
NCCOCCOCCNC(=O)c1ccc(-c2ccc3c(C=O)c(O)ccc3c2)s1 [Compound 45]	< 10 µM
O=Cc1c(O)ccc2cc(/C=C/C(=O)O)ccc12 [Compound 23]	10 µM
O=Cc1c(O)ccc2cc(-c3ccc(C(=O)NC4CCCNC4)s3)ccc12 (stereo not drawn) [Compound 47]	< 10 µM
O=Cc1c(O)ccc2ccc(N3CCC(N4CCOCC4)CC3)cc12 [Compound 90]	< 10 µM
CN(Cc1ccccc1)C1CCN(c2ccc3c(C=O)c(O)ccc3c2)C1 (stereo not drawn) [Compound 146]	> 10 µM
COCCNC(=O)c1ccc(-c2ccc3c(C=O)c(O)ccc3c2)s1 [Compound 15]	> 10 µM
COCCNCCNC(=O)c1ccc(-c2ccc3c(C=O)c(O)ccc3c2)cn1 [Compound 125]	< 10 µM
Cc1cc(C(=O)N2CCN(C)CC2)sc1-c1ccc2c(C=O)c(O)ccc2c1 [Compound 34]	< 10 µM
O=Cc1c(O)ccc2cc(N3CCCC(NCc4ccccc4)C3)ccc12 (stereo not drawn) [Compound 98]	< 10 µM
O=Cc1c(O)ccc2cc(-c3ccc(C(=O)NCC4CCCCN4)o3)ccc12 (stereo not drawn) [Compound 77]	< 10 µM

SMILES	EC50
CNC(=O)C1CCN(c2ccc3c(C=O)c(O)ccc3c2)C1 (stereo not drawn) [Compound 127]	> 10 µM
CN(C)C(=O)c1ccc(-c2ccc3c(C=O)c(O)ccc3c2)o1 [Compound 35]	< 10 µM
O=Cc1c(O)ccc2cc(-c3cccc(C(=O)N4CCCC4)n3)ccc12 [Compound 14]	< 10 µM
CN(C)C(=O)c1ccc(Cl)c(-c2ccc3c(C=O)c(O)ccc3c2)c1 [Compound 26]	> 10 µM
CN(Cc1ccccc1)C1CCN(c2ccc3ccc(O)c(C=O)c3c2)C1 (stereo not drawn) [Compound 152]	> 10 µM
CC(=O)N1CCN(c2ccc3c(C=O)c(O)ccc3c2)CC1 [Compound 83]	> 10 µM
CN(C)C(=O)c1ccc(-c2ccc3c(C=O)c(O)ccc3c2)c(Cl)c1 [Compound 28]	> 10 µM
CN1CCCCC1CNC(=O)c1ccc(-c2ccc3c(C=O)c(O)ccc3c2)s1 (stereo not drawn) [Compound 62]	< 10 µM
O=Cc1c(O)ccc2cc(-c3ccc(C(=O)NCC4CCNCC4)s3)ccc12 [Compound 43]	< 10 µM
COCc1cn(-c2ccc3c(C=O)c(O)ccc3c2)nn1 [Compound 105]	< 10 µM
Cc1nc(-c2ccc3c(C=O)c(O)ccc3c2)sc1C(=O)NCCN1CCOCC1 [Compound 142]	< 10 µM
O=Cc1c(O)ccc2cc(-c3cccc(C(=O)N4CCCC4)c3)ccc12 [Compound 1]	< 10 µM
CN(Cc1ccccc1)C(=O)C1CCN(c2ccc3ccc(O)c(C=O)c3c2)C1 (stereo not drawn) [Compound 134]	> 10 µM
CC(=O)N(C)C1CCN(c2ccc3ccc(O)c(C=O)c3c2)C1 (stereo not drawn) [Compound 157]	> 10 µM
O=Cc1c(O)ccc2cc(-c3ccc(C(=O)NC4CCNCC4)s3)ccc12 [Compound 46]	< 10 µM
CNC(=O)c1cccc(-c2ccc3c(C=O)c(O)ccc3c2)n1 [Compound 13]	> 10 µM
CN1CCN(C(=O)c2ccc(-c3ccc4c(C=O)c(O)ccc4c3)nc2)CC1 [Compound 57]	< 10 µM
O=Cc1c(O)ccc2cc(OCC(=O)O)ccc12 [Compound 178]	> 10 µM
COCCNC(=O)c1sc(-c2ccc3c(C=O)c(O)ccc3c2)nc1C [Compound 141]	< 10 µM
CCOC(=O)/C=C/c1ccc2c(C=O)c(O)ccc2c1 [Compound 22]	< 10 µM
O=Cc1c(O)ccc2cc(-c3ccc(C(=O)NC4CCNC4)s3)ccc12 (stereo not drawn) [Compound 73]	< 10 µM
O=Cc1c(O)ccc2cc(-c3ccc(C(=O)NCC4CCCNC4)s3)ccc12 (stereo not drawn) [Compound 42]	< 10 µM
N#Cc1ccc(Oc2ccc3c(C=O)c(O)ccc3c2)cc1 [Compound 181]	< 10 µM
COCCNC(=O)c1cccc(-c2ccc3c(C=O)c(O)ccc3c2)n1 [Compound 6]	> 10 µM
CN1CCN(C2CCN(c3ccc4ccc(O)c(C=O)c4c3)C2)CC1 (stereo not drawn) [Compound 138]	> 10 µM

Same assay, conditions: average EC50, endogenous XBP-1 splicing in myeloma cells, DTT stress

SMILES	EC50
CN1CCN(C(=O)COc2ccc3c(C=O)c(O)ccc3c2)CC1 [Compound 165]	> 10 µM

Target: human IRE-1α (GST-IRE-1α) (Homo sapiens (Human), UniProt O75460)
Sequence (O75460 19-977): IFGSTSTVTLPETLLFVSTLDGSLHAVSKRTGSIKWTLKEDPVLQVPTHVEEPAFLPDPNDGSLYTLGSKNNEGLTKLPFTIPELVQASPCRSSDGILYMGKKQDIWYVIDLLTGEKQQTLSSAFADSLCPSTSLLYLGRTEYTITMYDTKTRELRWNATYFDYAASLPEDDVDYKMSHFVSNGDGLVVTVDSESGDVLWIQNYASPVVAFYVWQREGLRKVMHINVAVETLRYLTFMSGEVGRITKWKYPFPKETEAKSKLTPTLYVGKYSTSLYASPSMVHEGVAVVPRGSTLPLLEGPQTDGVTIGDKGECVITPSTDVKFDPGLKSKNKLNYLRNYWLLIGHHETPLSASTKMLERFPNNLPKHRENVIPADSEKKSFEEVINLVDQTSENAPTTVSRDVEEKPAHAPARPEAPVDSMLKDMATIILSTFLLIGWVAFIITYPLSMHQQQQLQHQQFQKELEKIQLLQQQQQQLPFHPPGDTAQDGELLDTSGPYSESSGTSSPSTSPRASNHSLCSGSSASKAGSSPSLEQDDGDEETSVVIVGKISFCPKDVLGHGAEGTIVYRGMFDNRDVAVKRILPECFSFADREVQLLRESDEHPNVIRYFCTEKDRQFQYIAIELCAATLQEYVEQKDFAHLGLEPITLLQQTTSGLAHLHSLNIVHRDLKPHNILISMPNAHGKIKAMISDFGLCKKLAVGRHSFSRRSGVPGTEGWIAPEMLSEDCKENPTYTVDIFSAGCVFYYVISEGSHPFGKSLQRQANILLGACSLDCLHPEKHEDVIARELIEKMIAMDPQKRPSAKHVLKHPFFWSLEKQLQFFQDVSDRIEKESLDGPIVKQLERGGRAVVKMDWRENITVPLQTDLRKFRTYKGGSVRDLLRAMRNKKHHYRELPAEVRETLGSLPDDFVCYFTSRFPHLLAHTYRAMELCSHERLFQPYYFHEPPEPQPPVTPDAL
Assay: IRE-1α assay (cleavage of mini-XBP-1 mRNA stem-loop substrate)
Format: biochemical
Conditions: average IC50 for inhibition of IRE-1α in vitro
Method: A fusion protein comprising glutathione S transferase (GST) and human IRE-1α (GST-IRE-1α) obtained from a 500 ml baculovirus-infected insect cell culture can be used to measure IRE-1α activity in vitro. Five μl of a reaction mixture comprising 1× reaction buffer (5× reaction buffer is 100 mM Hepes pH 7.5, 250 mM KOAc, 2.5 mM MgCl2), 3 mM DTT, and 0.4% polyethylene glycol water is added to each well of 384 well plates. Twenty-five nanoliters of a 1 mM test compound solution are added to test wells. […] Negative control wells contain only reaction mixture and test compound. After spinning the plates at 1200 rpm for 30 seconds, 3 μl of an IRE-1α human mini-XBP-1 mRNA stem-loop substrate [NT] ID NO:1), labeled with the fluorescent dye Cy5 at the [NT] end, are added to each well of a control plate. The plates are again spun at 1200 rpm for 30 seconds. […] The plates are covered with lids and incubated for one hour at 30° C. The plates are then transferred to an […] microplate reader. Data is analyzed using data analysis software, and the percent activity of IRE-1α is calculated.

SMILES	IC50
O=Cc1c(O)ccc2cc(N3CCN(Cc4cccnc4)CC3)ccc12 [Compound 100]	< 1000 nM
CN1CCN(C(=O)C2CCN(c3ccc4c(C=O)c(O)ccc4c3)C2)CC1 (stereo not drawn) [Compound 112]	< 1000 nM
CS(=O)(=O)N1CCN(c2ccc3c(C=O)c(O)ccc3c2)CC1 [Compound 92, 2-Hydroxy-6-(4-methanesulfonyl-piperazin-1-yl)-naphthalene-1-carbaldehyde]	> 1000 nM
CN1CCCC(NC(=O)c2ccc(-c3ccc4c(C=O)c(O)ccc4c3)s2)C1 (stereo not drawn) [Compound 78]	< 100 nM
O=Cc1c(O)ccc2cc(N3CCC(C(=O)N4CCCCC4)C3)ccc12 (stereo not drawn) [Compound 129]	> 1000 nM
CN1CCN(C(=O)c2cc(-c3ccc4c(C=O)c(O)ccc4c3)ccn2)CC1 [Compound 66]	< 1000 nM
CN1CCN(C2CCN(c3ccc4c(C=O)c(O)ccc4c3)C2)CC1 (stereo not drawn) [Compound 118]	> 1000 nM
O=Cc1c(O)ccc2cc(-c3ccc(C(=O)NCC4CCCCN4)s3)ccc12 (stereo not drawn) [Compound 41]	< 100 nM
O=Cc1c(O)ccc2cc(N3CCC(N4CCOCC4)CC3)ccc12 [Compound 82]	< 1000 nM
CN1CCN(c2ncc(-c3ccc4c(C=O)c(O)ccc4c3)s2)CC1 [Compound 121]	< 100 nM
O=Cc1c(O)ccc2cc(-c3ccc(C(=O)NCCN4CCOCC4)s3)ccc12 [Compound 36]	< 100 nM
O=Cc1c(O)ccc2cc(-c3ccc(C(=O)NCCN4CCOCC4)cc3)ccc12 [Compound 139]	< 100 nM
CNC(=O)C1CCN(c2ccc3ccc(O)c(C=O)c3c2)C1 (stereo not drawn) [Compound 131]	> 1000 nM
O=Cc1c(O)ccc2cc(N3CCC(N4CCOCC4)C3)ccc12 (stereo not drawn) [Compound 107]	> 1000 nM
CNC(=O)c1cccc(-c2ccc3c(C=O)c(O)ccc3c2)c1 [Compound 8]	< 100 nM
CN1CCN(C(=O)COc2ccc3c(C=O)c(O)ccc3c2)CC1 [Compound 165]	> 1000 nM
NCCOCCOCCNC(=O)c1ccc(-c2ccc3c(C=O)c(O)ccc3c2)s1 [Compound 45]	< 1000 nM
O=Cc1c(O)ccc2cc(/C=C/C(=O)O)ccc12 [Compound 23]	< 1000 nM
O=Cc1c(O)ccc2cc(-c3ccc(C(=O)NC4CCCNC4)s3)ccc12 (stereo not drawn) [Compound 47]	< 100 nM
O=Cc1c(O)ccc2ccc(N3CCC(N4CCOCC4)CC3)cc12 [Compound 90]	> 1000 nM
CN(Cc1ccccc1)C1CCN(c2ccc3c(C=O)c(O)ccc3c2)C1 (stereo not drawn) [Compound 146]	> 1000 nM
COCCNC(=O)c1ccc(-c2ccc3c(C=O)c(O)ccc3c2)s1 [Compound 15]	< 1000 nM
COCCNCCNC(=O)c1ccc(-c2ccc3c(C=O)c(O)ccc3c2)cn1 [Compound 125]	< 100 nM
Cc1cc(C(=O)N2CCN(C)CC2)sc1-c1ccc2c(C=O)c(O)ccc2c1 [Compound 34]	< 100 nM
O=Cc1c(O)ccc2cc(N3CCCC(NCc4ccccc4)C3)ccc12 (stereo not drawn) [Compound 98]	1000 nM
O=Cc1c(O)ccc2cc(-c3ccc(C(=O)NCC4CCCCN4)o3)ccc12 (stereo not drawn) [Compound 77]	> 1000 nM

SMILES	IC50
CNC(=O)C1CCN(c2ccc3c(C=O)c(O)ccc3c2)C1 (stereo not drawn) [Compound 127]	< 1000 nM
CN(C)C(=O)c1ccc(-c2ccc3c(C=O)c(O)ccc3c2)o1 [Compound 35]	< 100 nM
O=Cc1c(O)ccc2cc(-c3cccc(C(=O)N4CCCC4)n3)ccc12 [Compound 14]	< 100 nM
CN(C)C(=O)c1ccc(Cl)c(-c2ccc3c(C=O)c(O)ccc3c2)c1 [Compound 26]	> 1000 nM
CN(Cc1ccccc1)C1CCN(c2ccc3ccc(O)c(C=O)c3c2)C1 (stereo not drawn) [Compound 152]	> 1000 nM
CC(=O)N1CCN(c2ccc3c(C=O)c(O)ccc3c2)CC1 [Compound 83]	< 1000 nM
CN(C)C(=O)c1ccc(-c2ccc3c(C=O)c(O)ccc3c2)c(Cl)c1 [Compound 28]	> 1000 nM
CN1CCCCC1CNC(=O)c1ccc(-c2ccc3c(C=O)c(O)ccc3c2)s1 (stereo not drawn) [Compound 62]	< 100 nM
O=Cc1c(O)ccc2cc(-c3ccc(C(=O)NCC4CCNCC4)s3)ccc12 [Compound 43]	< 100 nM
COCc1cn(-c2ccc3c(C=O)c(O)ccc3c2)nn1 [Compound 105]	< 1000 nM
Cc1nc(-c2ccc3c(C=O)c(O)ccc3c2)sc1C(=O)NCCN1CCOCC1 [Compound 142]	< 100 nM
O=Cc1c(O)ccc2cc(-c3cccc(C(=O)N4CCCC4)c3)ccc12 [Compound 1]	< 100 nM
CN(Cc1ccccc1)C(=O)C1CCN(c2ccc3ccc(O)c(C=O)c3c2)C1 (stereo not drawn) [Compound 134]	> 1000 nM
CC(=O)N(C)C1CCN(c2ccc3ccc(O)c(C=O)c3c2)C1 (stereo not drawn) [Compound 157]	> 1000 nM
O=Cc1c(O)ccc2cc(-c3ccc(C(=O)NC4CCNCC4)s3)ccc12 [Compound 46]	< 100 nM
CNC(=O)c1cccc(-c2ccc3c(C=O)c(O)ccc3c2)n1 [Compound 13]	< 100 nM
CN1CCN(C(=O)c2ccc(-c3ccc4c(C=O)c(O)ccc4c3)nc2)CC1 [Compound 57]	< 1000 nM
O=Cc1c(O)ccc2cc(OCC(=O)O)ccc12 [Compound 178]	> 1000 nM
COCCNC(=O)c1sc(-c2ccc3c(C=O)c(O)ccc3c2)nc1C [Compound 141]	< 100 nM
CCOC(=O)/C=C/c1ccc2c(C=O)c(O)ccc2c1 [Compound 22]	< 1000 nM
O=Cc1c(O)ccc2cc(-c3ccc(C(=O)NC4CCNC4)s3)ccc12 (stereo not drawn) [Compound 73]	< 100 nM
O=Cc1c(O)ccc2cc(-c3ccc(C(=O)NCC4CCCNC4)s3)ccc12 (stereo not drawn) [Compound 42]	< 100 nM
N#Cc1ccc(Oc2ccc3c(C=O)c(O)ccc3c2)cc1 [Compound 181]	< 1000 nM
COCCNC(=O)c1cccc(-c2ccc3c(C=O)c(O)ccc3c2)n1 [Compound 6]	< 100 nM
CN1CCN(C2CCN(c3ccc4ccc(O)c(C=O)c4c3)C2)CC1 (stereo not drawn) [Compound 138]	> 1000 nM
